Measured values as given in the OPERA property sets (Mansouri et al. 2018).

Settings: for log10 BCF / log10 biotransformation half-life (days): fish

O=S(=O)([O][Na])c1ccc2cc(O)c(S(=O)(=O)[O][Na])cc2c1
log10 BCF: 0.3

CCCCCCCCF
boiling point: 142 °C
log10 vapour pressure (mmHg): 0.772

c1ccc(-c2ccncc2)nc1
boiling point: 281 °C
melting point: 61.5 °C

Cc1cc2c(cc1Nc1ccccc1)C1(OC(=O)c3ccccc31)c1ccc(N(C)C3CCCCC3)cc1O2 (stereo unspecified)
ready biodegradability: not readily biodegradable

C=C=CCCCC
boiling point: 106 °C

CC(C)(C)c1ccc(O)c(O)c1
boiling point: 285 °C
melting point: 54.3 °C

CCCn1cnc2c1c(=O)n(CCCCC(C)=O)c(=O)n2C
melting point: 69 °C

CC(=O)OC1CCC(C(C)(C)C)CC1 (stereo unspecified)
log10 vapour pressure (mmHg): -2.12
melting point: -50 °C

C(=Cc1ccncc1)c1ccccc1
ready biodegradability: readily biodegradable

CCC(O)C(CC(C)N(C)C)(c1ccccc1)c1ccccc1 (stereo unspecified)
melting point: 127 °C

CCCCCCCCCC=O
boiling point: 208 °C
log10 Henry constant (atm·m³/mol): -2.74
log10 vapour pressure (mmHg): -0.987
melting point: -5 °C
ready biodegradability: readily biodegradable

Nc1c(Cl)cc(-c2cc(Cl)c(N)c(S(=O)(=O)O)c2)cc1S(=O)(=O)O
ready biodegradability: not readily biodegradable

CC(=O)OCC(=O)[C@@]1(O)CC[C@H]2[C@@H]3C[C@H](C)C4=CC(=O)C=C[C@]4(C)[C@H]3[C@@H](O)C[C@@]21C
melting point: 206 °C

CCOC(=O)CC(SP(=O)(OC)OC)C(=O)OCC (stereo unspecified)
log10 vapour pressure (mmHg): -5.01
log10 BCF: 0.05
log10 biotransformation half-life (days): -1.04

CC1=CCCC1C (stereo unspecified)
boiling point: 99 °C
melting point: -118 °C

CSC(=O)c1cccc2nnsc12
boiling point: 267 °C
log10 vapour pressure (mmHg): -5.48
melting point: 133 °C

CC(Br)C(C)Br (stereo unspecified)
boiling point: 161 °C
log10 vapour pressure (mmHg): 0.58
melting point: -24 °C

C1CCC2(CC1)CCCCC2
boiling point: 207 °C

CCC(C)(C)c1ccccc1
boiling point: 192 °C
ready biodegradability: not readily biodegradable

CC(=O)NCCS
melting point: 6.5 °C

C[C@@H]1[C@@H](c2ccc(Cl)cc2)SC(=O)N1C(=O)NC1CCCCC1 (single isomer, unassigned)
log10 Koc (L/kg): 3.79
log10 vapour pressure (mmHg): -7.59
melting point: 108 °C

CCn1cc(C(=O)O)c(=O)c2cc(F)c(N3CCNCC3)cc21
melting point: 228 °C

CCCCCC=CCC=CCCCCCCCC(=O)O
ready biodegradability: readily biodegradable

CC(CC(C)(C)C)CC(C)(C)C
boiling point: 178 °C
melting point: -67 °C
log10 BCF: 2.94
log10 biotransformation half-life (days): 0.72

C1=CCCCCCC1
melting point: -12 °C
